Literature values as cited in article PMC7214178, “Ligand‐specific recycling profiles determine distinct potential for chronic analgesic tolerance of delta‐opioid receptor (DOPr) agonists” (Journal of Cellular and Molecular Medicine, 2020).

How the values were obtained:
DOPr = system: DOPr; set-up: method as in PMID 24174495; details: cited from earlier work
[1] = peptidic ligands; cited from earlier work
[2] = system: endothelin‐converting enzyme 2 (ECE2); details: endosomal protease that functions at acidic pH; cited from earlier work
Source text: Indeed, deltorphin II is a naturally occurring opioid peptide ^32 and TIPP is an opioid peptide analogue. ^33 On the other hand, SNC‐80 ^34 and SB235863 ^35 are synthetic, non‐peptide ligands.

| Compound | Decay of cAMP inhibition in HEK cells (DOPr) | Blood‐brain barrier penetration [1] | Substrate of ECE2 [2] |
| --- | --- | --- | --- |
| CCC(C)COC(=O)c1[nH]c2c(c1C)CC1C3Cc4ccc(OC)c5c4C1(CCN3C)C2O5.Cl (stereo not drawn) [SB235863, [8R‐(4bS*,8aα,8aβ,12bβ)]7,10‐dimethyl‐1‐methoxy‐11‐(2‐ethylpropyl)oxycarbonyl 5,6,7,8,12,12b‐hexahydro‐(9H)‐4,8‐methanobenzofuro[3,2‐e]pyrrolo[2,3‐g]isoquinoline hydrochloride] | slow decay | – | – |
| deltorphin II | fast decay | poor blood‐brain barrier penetration | one of the ECE2 substrates |
| C=CCN1C[C@H](C)N([C@H](c2ccc(C(=O)N(CC)CC)cc2)c2cccc(OC)c2)C[C@H]1C [SNC‐80, (+)‐4‐[(αR)‐α‐((2S,5R)‐4‐allyl‐2,5‐dimethyl‐1‐piperazinyl)‐3‐methoxybenzyl]‐N,N‐diethylbenzamide] | fast decay | – | – |
